Counter-ions that a name gives are not always drawn. Like-named read-outs stand apart in the source and are kept apart here.
Columns and labels:
in vivo = conditions: male, Wistar, rat, po, 5 mg/kg
Procedure: Rodent Brain Penetration Study
(§1) Three animals were housed in each cage. Animals were given water and food ad libitum throughout the experiment, and maintained on a 12 hours light/dark cycle.
(§2) NCE compound was dissolved in water and administered orally. At Tmax (0.5, 1.0 and 2.0) animals were sacrificed to collect the plasma and brain tissue and were homogenized. Plasma and Brain was stored frozen at −20° C. until analysis. The concentrations of the NCE compound in plasma and Brain were determined using LC-MS/MS method.
(§3) The NCE compounds were quantified in plasma and brain homogenate by validated LC-MS/MS method using solid phase extraction technique. NCE compounds were quantified in the calibration range of 1-500 ng/mL in plasma and brain homogenate. Study samples were analyzed using calibration samples in the batch and quality control samples spread across the batch. Extents of brain-blood ratio were calculated (Cb/Cp).

Male Sprague Dawley rats = experiment: DRL-72s model of animal depression; type: in vivo; conditions: p.o.; rat
Procedure: The antidepressant properties of compounds of this invention were evaluated using a model of animal depression: the DRL-72s model. Male Sprague Dawley rats were used as experimental animals. Rats are trained to lever press for a 4″ access to 0.025 ml of water for each correct response during daily 60 minute sessions. All testing takes place on weekdays only. At the beginning of each session, the house light is illuminated and remains lit until the session ends. No other stimuli are presented during testing. After successful lever press training, rats are then required to respond under a DRL-24 second schedule, where only lever presses that are separated by 24 seconds are reinforced. Upon stable responding on a DRL-24 second schedule (5-10 sessions), rats are trained on a DRL-72 second schedule until responding stabilizes at approximately 15% efficiency (approx 25-35 sessions). Specifically, rats receive a reinforcer for each response that is emitted at least 72 seconds after the previous response (IRT). […] Efficiency is recorded as number of reinforced responses÷total number of responses. After stable baseline responding is achieved, defined as responding for 4 consecutive sessions with no more than 10% variability, animals begin drug testing. Animals receive drug no more than 1× per week.

Male Wister rats [1] = experiment: Reversal of formalin induced nociception; type: in vivo; conditions: p.o.; rat
Procedure: Reversal of Formalin Induced Nociception
The anti-nociceptive properties of compounds of this invention were evaluated using a model of pain: the Formalin Induced Nociception model. Male Wister rats (230-280 grams) obtained from N. I. N. (National Institute of Nutrition, Hyderabad, India) was used as experimental animals.
Rats were habituated for 20 minutes in the arena before the experiment was started. Duration of licks, bites and flinches were noted from 0-10 minutes and 20-35 minutes after administration of formalin, subplantar into the right hind paw at concentrations of 5% v/v. 50 μL of water for injection was injected into the right hind paw of the rats of the sham group. Compounds of this invention were administered orally prior to formalin administration.

[2] = Rodent pharmacokinetic study; type: in vivo; conditions: Wistar, in vivo, Wister rat/Male; for bioavailability: 5 mg/kg Per-Oral vs 5 mg/kg Intravenous; for AUC(0-t) / Cmax / Tmax / half-life: 5 mg/kg
Procedure: Rodent Pharmacokinetic Study
Three to five animals were housed in each cage. Animals were kept fasted over night and maintained on a 12 hours light/dark cycle. Three rats were dosed NCE orally (15 or 5 mg/kg) and intravenously (5 mg/kg) on day 0 and day 2
At each time point blood was collected by jugular vein. Plasma was stored frozen at −20° C. until analysis. The concentrations of the NCE compound in plasma were determined using LC-MS/MS method. Schedule time points: Pre dose 0.25, 0.5, 1, 1.5, 2, 3, 4, 6, 8, 10, 12 and 24 hours after dosing (n=3).
Pharmacokinetic parameters Cmax, Tmax, AUCt, T1/2 and Bioavailability were calculated by non-compartmental model using software WinNonlin version 5.0.1.

[3] = molecular target: Nicotinic Acetylcholine α4β2 Receptor (UniProt P09483+P12390); experiment: Binding assay for human or rat nicotinic acetylcholine α4β2 receptor ([3H]Cytisine displacement); conditions: [3H]Cytisine 2.5 nM, rat brain frontal cortex or recombinant human receptor in CHO cells (not specified which)
Procedure: Binding Assay for Human or Rat Nicotinic Acetylcholine α4β2 Receptor
• Receptor source: Rat brain frontal cortex or recombinant human cDNA expressed in CHO cells • Radioligand: [^3H]Cytisine 15-40 Ci/mmole • Final ligand concentration—[2.5 nM] • Non-specific determinant: Epibatidine—[0.1 μM] • Reference compound: Epibatidine • Positive control: Epibatidine Incubation Conditions:
Increasing concentrations of test compounds or standard were incubated with membrane receptors and radioligand in 120 mM NaCl, 2.5 mM KCl, 1 mM CaCl2, 1 mM MgCl2 and 50 mM TRIS-HCl (pH 7.4) for 60 minutes at room temperature. The reaction was terminated by rapid vacuum filtration onto the glass fiber filters. Radioactivity trapped onto the filters was determined and compared to the control values in order to ascertain any interactions of the test compound(s) with either cloned human or rat receptor binding site.
Literature Reference: Bunnelle W. H., Daanen J. F., Ryther K. B., Schrimpf M. R., Dart M. J., Gelain A., Meyer M. D., Frost J. M., Anderson D. J., Buckley M., Curzon P., Cao Y-J., Puttfarcken P., Searle X., Ji J., Putman C. B., Surowy C., Toma L. and Barlocco D. Structure-Activity Studies and Analgesic Efficacy of N-(3-Pyridinyl)-Bridged Bicyclic Diamines, Exceptionally Potent Agonists at Nicotinic Acetylcholine Receptors. J. Med. Chem. 2007, 50, […].

Male Wister rats [4] = experiment: Object recognition task model; type: in vivo, rat; conditions: 0.1 mg/kg, p.o.
Procedure: Object Recognition Task Model
The cognition-enhancing properties of compounds of this invention were estimated using a model of animal cognition: the object recognition task model.
Male Wister rats (230-280 grams) obtained from N. I. N. (National Institute of Nutrition, Hyderabad, India) was used as experimental animals. Four animals were housed in each cage. […] Also the rats were habituated to individual arenas for 1 hour in the absence of any objects.
One group of 12 rats received vehicle (1 mL/Kg) orally and another set of animals received compound of the formula (I) either orally or i.p., before one hour of the familiar (T1) and choice trial (T2).
The experiment was carried out in a 50×50×50 cm open field made up of acrylic. In the familiarization phase, (T1), the rats were placed individually in the open field for 3 minutes, in which two identical objects (plastic bottles, 12.5 cm height×5.5 cm diameter) covered in yellow masking tape alone (a1 and a2) were positioned in two adjacent corners, 10 cm. from the walls. After 24 hours of the (T1) trial for long-term memory test, the same rats were placed in the same arena as they were placed in T1 trial. Choice phase (T2) rats were allowed to explore the open field for 3 minutes in presence of one familiar object (a3) and one novel object (b) (Amber color glass bottle, 12 cm high and 5 cm in diameter). Familiar objects presented similar textures, colors and sizes. During the T1 and T2 trial, explorations of each object (defined as sniffing, licking, chewing or having moving vibrissae whilst directing the nose towards the object at a distance of less than 1 cm) were recorded separately by stopwatch. Sitting on an object was not regarded as exploratory activity, however, it was rarely observed.
T1 is the total time spent exploring the familiar objects (a1+a2).
T2 is the total time spent exploring the familiar object and novel object (a3+b).
The object recognition test was performed as described by Ennaceur, A., Delacour, J., 1988, A new one-trial test for neurobiological studies of memory in rats—Behavioural data, Behav. Brain Res., 31, 47-59.

Male Wister rats [5] = experiment: Acute food intake study (animal model of hyperphagia); type: in vivo, rat; conditions: oral
Procedure: The appetite suppressing properties of compounds of this invention were studied using an animal model of hyperphagia.
Male Wister rats (200-210 grams) obtained from Raj Biotech, India were used as experimental animals. The experiment consisted of 6 days. The rats were adapted to the 18 hour fasting and 6 hour feeding pattern. The animals were housed in a group of three in the cages provided with the fasting grills and were fasted for 18 hours. After 18 hour fasting the rats were separated and placed individually in a cage. Weighed amount of feed was provided to rats for 6 hour and the feed intake at 1, 2, 4 and 6 hours was recorded. Again the rats were regrouped and fasted for 18 hour. The above procedure was followed for 5 days. The average cumulative food intake by the rats on the last 3 days was calculated. Animals were randomised on the basis of their last three days food intake.
One group of 8 rats received vehicle (2 mL/Kg) orally and another set of animals received compound of the formula (I) orally. Then the rats were given access to food and the food intake at 1, 2, 4 and 6 hours was recorded. The food intake by the rats treated with test compound was compared with the vehicle treated group by using students‘t’ test.

[6] = Rodent brain penetration study; conditions: male, Wistar, rat, brain homogenate and plasma, po, 5 mg/kg
Procedure: Rodent Brain Penetration Study
as §1, §2, §3

Structure (SMILES) | bioavailability [2] [%] | AUC(0-t) ([2]; Intravenous) [µg·h/mL] | Cmax ([2]; Intravenous) [µg/mL] | Tmax ([2]; Intravenous) [min] | half-life ([2]; Intravenous) [min] | AUC(0-t) ([2]; Per-Oral) [µg·h/mL] | Cmax ([2]; Per-Oral) [µg/mL] | Tmax ([2]; Per-Oral) [min] | half-life ([2]; Per-Oral) [min] | other results
NCC1CC2CC2N1c1cncc(Cl)c1.O=C(O)/C=C/C(=O)O (centres unmarked) [Example 13, [2-(5-Chloropyridin-3-yl)-2-aza-bicyclo[3.1.0]hex-3-yl]methylamine fumarate] | 89 ± 18 | 1.76 ± 0.228 | 0.836 ± 0.239 | 4.8 | 85.8 ± 6.6 | 1.54 ± 0.165 | 0.753 ± 0.277 | 22.8 ± 8.4 | 105 ± 24 | Kp (in vivo): 10.8 ± 1.29; Dose (DRL-72s) (Male Sprague Dawley rats): ≧10 mg/kg, p.o.; Dose (reversal of formalin induced nociception) (Male Wister rats [1]): ≧30 mg/kg, p.o.; Ki ([3]; read-out: Ki): 3.5 nM; Inference (Male Wister rats [4]): Active; Exploration time mean ± S.E.M, Familiar object (Male Wister rats [4]; choice trial): 7.32 ± 1.04 s; Exploration time mean ± S.E.M, Novel object (Male Wister rats [4]; choice trial): 22.77 ± 2.12 s
NCC1CC2CC2N1c1cccnc1 (centres unmarked) [Example 18, [2-(Pyridin-3-yl)-2-azabicyclo[3.1.0]hex-3-yl] methylamine fumarate] | 87 ± 24 | 1.76 ± 0.228 | 0.701 ± 0.213 | 22.8 ± 8.4 | 85.8 ± 6.6 | 1.54 ± 0.165 | 0.355 ± 0.053 | 4.8 | 105 ± 24 | Ki [3]: 6.4 nM; Inference (Male Wister rats [5]): Active; % Suppression of food intake compared to vehicle, 1 Hour (Male Wister rats [5]; 1 Hour, 18 hour fasted rats): 36.80%; % Suppression of food intake compared to vehicle, 2 Hour (Male Wister rats [5]; 2 Hour, 18 hour fasted rats): 33.05%; % Suppression of food intake compared to vehicle, 4 Hour (Male Wister rats [5]; 4 Hour, 18 hour fasted rats): 30.02%; % Suppression of food intake compared to vehicle, 6 Hour (Male Wister rats [5]; 6 Hour, 18 hour fasted rats): 25.38%; Kp [6]: 3.52 ± 0.13

— patent US8653071B2, “α4β2 neuronal nicotinic acetylcholine receptor ligands” (Suven Life Sciences Limited, priority 2009, dated 2014)
